Consider two molecules from ChEMBL document CHEMBL4507274 (2021).

Assay [1] concerns Epidermal growth factor receptor (Homo sapiens), P00533 [UNDEFINED MUTATION]. The following applies: Compound concentration 100.0 nM.
In assay [2] the target is Sodium-dependent noradrenaline transporter (Homo sapiens) (UniProt P23975). The following applies: Compound concentration 10.0 uM.
Assay [3] concerns Epidermal growth factor receptor (Homo sapiens), P00533 [L858R,T790M]. The following applies: Compound concentration 100.0 nM.
Assay [4] concerns the target Receptor-type tyrosine-protein kinase FLT3 (Homo sapiens) (UniProt P36888). Particulars: Compound concentration 10.0 uM.
Assay [5] deals with T1, Tyrosine-protein kinase receptor TYRO3 (Homo sapiens) (UniProt Q06418).
T1 sequence (whole entry): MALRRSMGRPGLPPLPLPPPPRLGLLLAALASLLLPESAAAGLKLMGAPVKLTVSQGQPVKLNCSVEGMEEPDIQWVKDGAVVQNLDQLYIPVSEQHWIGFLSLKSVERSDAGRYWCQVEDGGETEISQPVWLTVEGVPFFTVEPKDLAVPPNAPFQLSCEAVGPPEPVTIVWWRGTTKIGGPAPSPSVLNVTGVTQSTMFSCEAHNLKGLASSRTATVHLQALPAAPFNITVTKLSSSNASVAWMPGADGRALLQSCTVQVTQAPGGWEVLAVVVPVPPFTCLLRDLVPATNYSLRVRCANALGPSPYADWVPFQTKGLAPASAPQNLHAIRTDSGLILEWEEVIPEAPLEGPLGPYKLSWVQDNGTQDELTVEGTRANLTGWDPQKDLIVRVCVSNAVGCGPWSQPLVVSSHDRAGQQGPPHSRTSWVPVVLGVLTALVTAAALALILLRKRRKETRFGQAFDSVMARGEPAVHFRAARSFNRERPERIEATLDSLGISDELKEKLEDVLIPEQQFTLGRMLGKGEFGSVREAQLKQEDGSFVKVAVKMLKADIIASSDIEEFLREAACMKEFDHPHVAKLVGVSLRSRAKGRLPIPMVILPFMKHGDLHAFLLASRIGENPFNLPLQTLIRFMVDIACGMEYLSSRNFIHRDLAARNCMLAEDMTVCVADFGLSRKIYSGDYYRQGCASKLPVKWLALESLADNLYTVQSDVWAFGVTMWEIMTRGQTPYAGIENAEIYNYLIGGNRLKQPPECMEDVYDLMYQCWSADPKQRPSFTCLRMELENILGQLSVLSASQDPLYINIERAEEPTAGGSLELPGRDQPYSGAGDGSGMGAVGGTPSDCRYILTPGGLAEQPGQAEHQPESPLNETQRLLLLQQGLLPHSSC
Briefly: Rse (h) Upstate kinase activity assay. The following applies: Compound concentration 10.0 uM.

The target of assay [6] is Protein kinase C zeta type (Homo sapiens) (UniProt Q05513). Briefly: PKCzeta (h) Upstate kinase activity assay. The following applies: Compound concentration 10.0 uM.
In the next assay the test system is U-937. Briefly: Lymphoma U937 cell line MDS Pharma Services Proliferation Assay. The format is functional, cell-based, Homo sapiens.
For assay [7], the target named is Protein kinase C eta type (Homo sapiens) (UniProt P24723). Briefly: PKCeta (h) Upstate kinase activity assay. Particulars: Compound concentration 10.0 uM.
Assay [8] deals with Tyrosine-protein kinase Fgr (Homo sapiens) (UniProt P09769). Briefly: Fgr (h) Upstate kinase activity assay. Particulars: Compound concentration 10.0 uM.
For assay [9], the target named is BDNF/NT-3 growth factors receptor (Homo sapiens) (UniProt Q16620). Briefly: TrkB (h) Upstate kinase activity assay. Particulars: Compound concentration 10.0 uM.
Assay [10] concerns the target Macrophage colony-stimulating factor 1 receptor (Homo sapiens) (UniProt P07333). Nature of the assay: Fms (h) Upstate kinase activity assay. The following applies: Compound concentration 10.0 uM.
Assay [11] addresses T2, Serine/threonine-protein kinase D2 (Homo sapiens) (UniProt Q9BZL6).
T2 sequence (whole entry): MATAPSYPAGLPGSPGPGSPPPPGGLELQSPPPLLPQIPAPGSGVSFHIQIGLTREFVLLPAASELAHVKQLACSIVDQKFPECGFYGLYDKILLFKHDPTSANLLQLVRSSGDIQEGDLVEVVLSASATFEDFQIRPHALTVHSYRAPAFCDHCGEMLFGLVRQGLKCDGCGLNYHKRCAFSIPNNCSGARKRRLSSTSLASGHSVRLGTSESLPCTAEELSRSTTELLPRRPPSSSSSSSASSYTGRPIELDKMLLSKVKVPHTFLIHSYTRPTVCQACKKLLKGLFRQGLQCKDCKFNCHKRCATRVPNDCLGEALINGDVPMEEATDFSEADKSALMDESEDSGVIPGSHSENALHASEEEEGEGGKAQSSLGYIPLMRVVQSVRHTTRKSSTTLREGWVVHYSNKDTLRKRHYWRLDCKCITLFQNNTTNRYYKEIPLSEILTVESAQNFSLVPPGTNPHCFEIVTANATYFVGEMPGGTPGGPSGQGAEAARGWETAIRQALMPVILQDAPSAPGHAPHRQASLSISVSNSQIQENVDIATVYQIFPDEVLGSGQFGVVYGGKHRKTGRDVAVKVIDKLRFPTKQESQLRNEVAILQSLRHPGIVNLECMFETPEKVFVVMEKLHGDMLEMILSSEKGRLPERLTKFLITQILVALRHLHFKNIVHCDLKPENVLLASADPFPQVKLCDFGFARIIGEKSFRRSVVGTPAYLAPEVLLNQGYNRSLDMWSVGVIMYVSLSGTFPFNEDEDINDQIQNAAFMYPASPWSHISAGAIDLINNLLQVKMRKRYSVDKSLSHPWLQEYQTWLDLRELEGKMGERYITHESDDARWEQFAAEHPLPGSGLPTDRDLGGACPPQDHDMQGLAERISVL
Nature of the assay: PKD2 (h) Upstate kinase activity assay. Particulars: Compound concentration 10.0 uM.

Another assay relates to PC-6. Nature of the assay: Lung PC-6 cell line MDS Pharma Services Proliferation Assay. In kind it is functional, cell-based, Homo sapiens.
For assay [12], the target named is RAF proto-oncogene serine/threonine-protein kinase (Homo sapiens) (UniProt P04049). Nature of the assay: c-RAF (h) Upstate kinase activity assay. Particulars: Compound concentration 10.0 uM.
Assay [13] deals with Tyrosine-protein kinase receptor UFO (Homo sapiens) (UniProt P30530). Nature of the assay: Axl (h) Upstate kinase activity assay. Particulars: Compound concentration 10.0 uM.
For assay [14], the target named is RAC-beta serine/threonine-protein kinase (Homo sapiens) (UniProt P31751). Nature of the assay: PKBbeta (h) Upstate kinase activity assay. The following applies: Compound concentration 10.0 uM.
Assay [15] can be described thus: Leukemia […] cell line MDS Pharma Services Proliferation Assay. The format is functional, cell-based, Homo sapiens.

Macrophage colony-stimulating factor 1 receptor (Homo sapiens), sequence (P07333 whole entry): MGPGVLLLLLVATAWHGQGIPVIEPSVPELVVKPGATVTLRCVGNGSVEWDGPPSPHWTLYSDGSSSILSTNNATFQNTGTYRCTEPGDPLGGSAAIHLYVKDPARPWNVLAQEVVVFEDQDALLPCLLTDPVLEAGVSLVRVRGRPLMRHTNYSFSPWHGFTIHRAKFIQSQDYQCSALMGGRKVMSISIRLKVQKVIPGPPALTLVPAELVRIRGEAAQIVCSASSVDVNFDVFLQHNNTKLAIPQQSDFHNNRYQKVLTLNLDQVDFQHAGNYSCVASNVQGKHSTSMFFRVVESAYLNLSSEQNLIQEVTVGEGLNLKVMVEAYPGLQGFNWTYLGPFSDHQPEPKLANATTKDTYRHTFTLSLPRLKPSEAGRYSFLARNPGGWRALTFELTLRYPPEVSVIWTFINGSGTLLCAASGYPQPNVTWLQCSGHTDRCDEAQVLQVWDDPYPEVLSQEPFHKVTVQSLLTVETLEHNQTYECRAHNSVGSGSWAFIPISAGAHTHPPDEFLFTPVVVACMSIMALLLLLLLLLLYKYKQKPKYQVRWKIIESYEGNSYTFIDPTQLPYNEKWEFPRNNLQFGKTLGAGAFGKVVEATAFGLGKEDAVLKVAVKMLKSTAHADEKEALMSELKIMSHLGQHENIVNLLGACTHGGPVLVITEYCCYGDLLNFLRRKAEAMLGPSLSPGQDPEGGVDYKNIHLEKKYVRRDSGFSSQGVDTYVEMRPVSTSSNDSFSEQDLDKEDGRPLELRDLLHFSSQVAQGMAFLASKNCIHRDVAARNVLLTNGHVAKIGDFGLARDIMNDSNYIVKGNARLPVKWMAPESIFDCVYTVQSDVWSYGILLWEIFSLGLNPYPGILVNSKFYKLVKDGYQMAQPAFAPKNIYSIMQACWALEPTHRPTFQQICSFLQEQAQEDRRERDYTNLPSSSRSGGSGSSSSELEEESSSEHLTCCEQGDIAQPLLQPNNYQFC
RAC-beta serine/threonine-protein kinase (Homo sapiens), sequence (P31751 whole entry): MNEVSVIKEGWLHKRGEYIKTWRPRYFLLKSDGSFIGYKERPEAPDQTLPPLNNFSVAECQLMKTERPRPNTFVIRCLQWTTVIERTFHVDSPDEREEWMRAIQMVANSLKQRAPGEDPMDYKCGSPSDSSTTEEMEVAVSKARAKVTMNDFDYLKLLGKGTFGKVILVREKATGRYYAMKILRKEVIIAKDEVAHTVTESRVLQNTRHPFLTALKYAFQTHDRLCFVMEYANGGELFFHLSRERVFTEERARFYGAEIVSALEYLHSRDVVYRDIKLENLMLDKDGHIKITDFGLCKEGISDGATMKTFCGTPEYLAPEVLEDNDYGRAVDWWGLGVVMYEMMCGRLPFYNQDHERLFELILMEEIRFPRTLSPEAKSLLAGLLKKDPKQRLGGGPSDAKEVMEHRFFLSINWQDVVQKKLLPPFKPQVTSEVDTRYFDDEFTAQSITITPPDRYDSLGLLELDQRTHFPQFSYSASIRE
Protein kinase C zeta type (Homo sapiens), sequence (Q05513 whole entry): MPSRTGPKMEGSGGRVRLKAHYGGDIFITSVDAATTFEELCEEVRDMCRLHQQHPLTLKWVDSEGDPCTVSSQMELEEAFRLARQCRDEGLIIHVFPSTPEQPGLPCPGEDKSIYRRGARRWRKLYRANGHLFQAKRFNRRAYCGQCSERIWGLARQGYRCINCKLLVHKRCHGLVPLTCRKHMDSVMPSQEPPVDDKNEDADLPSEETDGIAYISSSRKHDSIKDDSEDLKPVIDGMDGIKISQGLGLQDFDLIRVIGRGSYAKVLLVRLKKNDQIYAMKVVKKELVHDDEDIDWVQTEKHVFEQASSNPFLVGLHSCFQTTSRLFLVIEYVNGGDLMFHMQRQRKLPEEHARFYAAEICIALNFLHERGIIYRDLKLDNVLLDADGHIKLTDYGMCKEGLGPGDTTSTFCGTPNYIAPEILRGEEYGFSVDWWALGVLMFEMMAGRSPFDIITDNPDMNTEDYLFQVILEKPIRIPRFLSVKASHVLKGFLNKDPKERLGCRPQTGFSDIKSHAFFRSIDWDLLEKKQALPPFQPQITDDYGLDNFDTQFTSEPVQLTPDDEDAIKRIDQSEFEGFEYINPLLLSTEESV
Sodium-dependent noradrenaline transporter (Homo sapiens), sequence (P23975 whole entry): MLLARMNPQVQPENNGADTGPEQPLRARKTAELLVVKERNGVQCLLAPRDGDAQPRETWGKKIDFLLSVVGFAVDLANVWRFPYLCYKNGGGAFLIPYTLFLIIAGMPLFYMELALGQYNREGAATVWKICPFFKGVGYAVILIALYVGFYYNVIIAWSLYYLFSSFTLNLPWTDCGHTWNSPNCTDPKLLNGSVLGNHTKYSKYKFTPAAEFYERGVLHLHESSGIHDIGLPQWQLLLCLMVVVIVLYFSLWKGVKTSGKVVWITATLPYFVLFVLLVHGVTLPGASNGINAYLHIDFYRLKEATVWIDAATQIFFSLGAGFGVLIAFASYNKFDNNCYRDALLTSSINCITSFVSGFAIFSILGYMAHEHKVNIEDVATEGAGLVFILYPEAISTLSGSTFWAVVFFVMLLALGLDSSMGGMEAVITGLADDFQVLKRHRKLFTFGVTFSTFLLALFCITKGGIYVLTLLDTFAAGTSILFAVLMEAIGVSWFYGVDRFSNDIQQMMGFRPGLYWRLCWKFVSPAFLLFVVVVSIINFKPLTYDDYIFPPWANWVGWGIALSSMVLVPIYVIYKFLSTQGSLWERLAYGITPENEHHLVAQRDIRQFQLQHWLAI
RAF proto-oncogene serine/threonine-protein kinase (Homo sapiens), sequence (P04049 whole entry): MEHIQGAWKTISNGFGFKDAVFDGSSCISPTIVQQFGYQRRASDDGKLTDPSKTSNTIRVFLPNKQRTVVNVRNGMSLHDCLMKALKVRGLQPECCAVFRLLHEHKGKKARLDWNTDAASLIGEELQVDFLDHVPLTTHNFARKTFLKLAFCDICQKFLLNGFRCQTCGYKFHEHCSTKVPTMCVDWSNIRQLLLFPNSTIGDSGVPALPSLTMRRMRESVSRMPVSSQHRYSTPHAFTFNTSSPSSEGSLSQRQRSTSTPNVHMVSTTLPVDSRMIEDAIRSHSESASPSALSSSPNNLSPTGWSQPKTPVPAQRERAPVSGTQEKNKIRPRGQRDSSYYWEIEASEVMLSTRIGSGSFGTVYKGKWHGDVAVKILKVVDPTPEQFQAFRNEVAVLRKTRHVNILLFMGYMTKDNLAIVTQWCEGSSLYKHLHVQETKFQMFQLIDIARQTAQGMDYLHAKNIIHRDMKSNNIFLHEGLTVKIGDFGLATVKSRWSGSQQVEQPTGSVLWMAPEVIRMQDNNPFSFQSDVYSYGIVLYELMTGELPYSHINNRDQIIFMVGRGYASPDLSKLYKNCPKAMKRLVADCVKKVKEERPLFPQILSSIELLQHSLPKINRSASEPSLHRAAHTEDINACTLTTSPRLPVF
Protein kinase C eta type (Homo sapiens), sequence (P24723 whole entry): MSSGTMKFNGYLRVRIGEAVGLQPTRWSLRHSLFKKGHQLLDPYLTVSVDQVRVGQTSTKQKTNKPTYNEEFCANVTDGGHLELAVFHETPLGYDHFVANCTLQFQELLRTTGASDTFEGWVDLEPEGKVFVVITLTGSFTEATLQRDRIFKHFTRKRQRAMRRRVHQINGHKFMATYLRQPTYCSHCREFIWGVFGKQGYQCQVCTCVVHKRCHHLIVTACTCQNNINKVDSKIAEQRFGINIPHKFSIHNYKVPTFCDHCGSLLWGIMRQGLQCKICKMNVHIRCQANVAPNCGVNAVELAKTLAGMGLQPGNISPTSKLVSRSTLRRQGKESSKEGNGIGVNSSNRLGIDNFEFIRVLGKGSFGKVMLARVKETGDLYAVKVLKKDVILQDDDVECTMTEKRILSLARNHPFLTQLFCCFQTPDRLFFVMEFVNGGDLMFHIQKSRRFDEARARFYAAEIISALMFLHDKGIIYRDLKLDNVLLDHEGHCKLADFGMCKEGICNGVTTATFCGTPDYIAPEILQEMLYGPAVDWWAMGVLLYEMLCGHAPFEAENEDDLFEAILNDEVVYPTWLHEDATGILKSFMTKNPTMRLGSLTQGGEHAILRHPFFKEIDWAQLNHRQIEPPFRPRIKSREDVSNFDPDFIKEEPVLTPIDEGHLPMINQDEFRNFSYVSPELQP
Tyrosine-protein kinase receptor UFO (Homo sapiens), sequence (P30530 whole entry): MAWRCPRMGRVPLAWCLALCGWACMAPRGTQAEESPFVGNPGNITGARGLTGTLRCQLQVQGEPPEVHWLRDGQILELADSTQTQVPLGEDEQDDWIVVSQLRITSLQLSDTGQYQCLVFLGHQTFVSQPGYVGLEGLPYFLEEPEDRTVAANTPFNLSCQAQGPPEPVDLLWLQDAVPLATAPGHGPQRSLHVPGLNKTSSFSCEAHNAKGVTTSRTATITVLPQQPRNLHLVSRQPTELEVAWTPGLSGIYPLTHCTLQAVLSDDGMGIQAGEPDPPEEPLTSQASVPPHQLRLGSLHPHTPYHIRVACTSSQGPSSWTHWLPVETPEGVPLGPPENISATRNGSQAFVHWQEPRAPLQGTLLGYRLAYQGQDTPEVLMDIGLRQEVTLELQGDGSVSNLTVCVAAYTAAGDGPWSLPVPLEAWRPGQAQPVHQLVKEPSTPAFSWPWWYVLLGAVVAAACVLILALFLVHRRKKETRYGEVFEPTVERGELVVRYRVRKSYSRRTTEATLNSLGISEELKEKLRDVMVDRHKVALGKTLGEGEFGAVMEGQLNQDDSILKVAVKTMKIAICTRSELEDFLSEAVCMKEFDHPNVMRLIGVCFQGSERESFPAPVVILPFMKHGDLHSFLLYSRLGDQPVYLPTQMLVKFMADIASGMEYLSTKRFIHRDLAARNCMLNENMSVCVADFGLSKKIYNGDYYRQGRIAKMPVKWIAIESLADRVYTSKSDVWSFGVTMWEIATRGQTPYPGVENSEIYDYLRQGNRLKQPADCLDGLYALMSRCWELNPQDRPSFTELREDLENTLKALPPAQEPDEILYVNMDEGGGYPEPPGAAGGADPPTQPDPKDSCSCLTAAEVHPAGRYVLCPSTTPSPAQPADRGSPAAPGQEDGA

Regarding `Cn1cc(Cl)c2c(Oc3c(F)cc(Nc4cc(Cl)nc(N)n4)cc3F)ccnc21` [BAY-4900], the values for the residual activity in [1] and in assay [3] were 73% and 84%, respectively. Also, the inhibition in [2] is 3.14%.
As to `Cc1c[nH]c2nccc(Oc3c(F)cc(Nc4cc(Cl)nc(N)n4)cc3F)c12` [BAY-549], the inhibition in [4] is 98%; in assay [5] it was 15%; in assay [6], -7%; in assay [7], 24%; in [8] it was 27%; in assay [9], 84%. Besides, the inhibition is 64% in assay [10]; 28% in assay [11]; 76% in [12]; 85% in [13]; 85% in assay [14]. Besides, the IC50 in the assay on U-937 (Homo sapiens, U-937) amounted to 14 µM; in the assay on PC-6 (Homo sapiens, PC-6), 4.2 µM; in assay [15] (Homo sapiens, Leukemia 1-IL-60), 21 µM. Moreover, the TGI in the assay on U-937 (Homo sapiens, U-937) was more than 100 µM; in the assay with PC-6 (Homo sapiens, PC-6), 18 µM; in assay [15] (Homo sapiens, Leukemia 1-IL-60), more than 100 µM. The CC50 is more than 100 µM in the assay with U-937 (Homo sapiens, U-937, read-out: LC50 (the source's name)); 76 µM with PC-6 (Homo sapiens, PC-6, read-out: LC50 (the source's name)); more than 100 µM in assay [15] (Homo sapiens, Leukemia 1-IL-60, read-out: LC50 (the source's name)). Also, the figures for the “Mean % growth (n = 2) for 0.01 µM probe concentration” value (with U-937 (± SEM 1 % growth); in the assay on PC-6 (± SEM 9 % growth); in assay [15] (± SEM 4 % growth)) were 101%, 105% and 98%, respectively. Further, the “Mean % growth (n = 2) for 0.1 µM probe concentration” value in the assay with U-937 (± SEM 2 % growth) was 103%; in the assay on PC-6 (± SEM 5 % growth), 84%; in [15] (± SEM 4 % growth), 88%. For the same molecule, the “Mean % growth (n = 2) for 1.0 µM probe concentration” value in the assay with U-937 (± SEM 2 % growth) was 104%; in the assay with PC-6 (± SEM 9 % growth) it was 70%; in assay [15] (± SEM 5 % growth), 89%. The “Mean % growth (n = 2) for 100.0 µM probe concentration” value in the assay on U-937 (± SEM 5 % growth) is 17%; in the assay on PC-6 (± SEM 6 % growth), -65%; in [15] (± SEM 2 % growth) it was 35%. The “Mean % growth (n = 2) for 10.0 µM probe concentration” value turned out to be 56% in the assay with U-937 (± SEM 7 % growth), 32% in the assay on PC-6 (± SEM 7 % growth) and 53% in [15] (± SEM 6 % growth).

What is called residual activity is the share of the control activity or signal that is left under treatment. What is called inhibition is the change of the read-out against control, counted positive when it falls. As a reminder, the IC50 is the concentration needed to halve the response being measured. A higher IC50 goes with weaker potency in that assay. For orientation: TGI means the concentration giving total growth inhibition. Lower therefore signals greater sensitivity of the cells.
